Test results as given in paper PMC6882900, “Pharmacokinetics of Micafungin in Critically Ill Patients” (Scientific Reports, 2019).
Converted amounts (≈) assume the structure as drawn. Numbered stars: 1 amine (or outer) side, 2 acyl side, 3 side chain; on linkers, the order of the positions; unused ones are H or OH. Bridge positions count the residues as written; N and C are the ends. Square brackets hold non-standard residues; d marks the D form. Peptide text beside a SMILES is read from it. * marks the point of attachment. hTyr(3S-OH,4S-OH,3'-OSO3H) = N[C@H](C(=O)O)[C@H](O)[C@@H](O)c1ccc(O)c(OS(=O)(=O)O)c1; Orn(4R-OH,5R-OH) = O=C([C@H](C[C@@H](O)[C@@H](O)N[*:3])N[*:1])[*:2]; Pro(3S-OH,4S-Me) = C[C@H]1CN[C@H](C(=O)O)[C@H]1O; X1 = CCCCCOc1ccc(-c2cc(-c3ccc(C(=O)*)cc3)no2)cc1; Gln(3R-OH) = NC(=O)C[C@@H](O)[C@H](N)C(=O)O; Hyp = O=C(O)[C@@H]1C[C@@H](O)CN1

Experiments:
[1] = cited from earlier work
Method: (§1) Micafungin has a small volume of distribution (~119 ml/kg) and the drug is highly protein bound (>99%). The primary binding protein is albumin. […] The pharmacokinetics and pharmacodynamics of micaf ...

albumin = conditions: primary binding protein is albumin; cited from earlier work
Method: as §1

C. parapsilosis [2] = test system: C. parapsilosis; design: method as in EUCAST; conditions: ref EUCAST; cited from earlier work
C. parapsilosis [3] = conditions: non-resistant strains; cited from earlier work
Text: (§2) The European Committee on Antimicrobial Susceptibility Testing (EUCAST) established the guideline for micafungin and Candida ssp. with species related clinical breakpoints for non-resistant strains. These breakpoints were used as surrogate for the minimal inhibitory concentration (MIC) for C. albicans, C. glabrata and C. parapsilosis. Proposed MICs are […], respectively.

C. albicans [4] = conditions: non-resistant strains; cited from earlier work
Text: as §2

C. glabrata [5] = assay: Pharmacodynamic target evaluation (AUC/MIC) in the study population; type: in vivo, Candida glabrata; conditions: fixed dose 100 mg once daily, post-hoc AUC 0-24 h per patient and day
Text: as §2
(§3) Using the previously established population pharmacokinetic model, the AUC for each patient on each day of therapy was determined.

[6] = Population pharmacokinetic modelling of micafungin in critically ill patients (NONMEM, plasma samples); type: in vivo, human
Text: This is a non-interventional study conducted in critically ill adult patients treated in the intensive care units of the Department of Anaesthesiology, Intensive Care Medicine and Pain Therapy of the University Hospital Muenster in Germany. The collection of data and blood samples was approved by the ethics committee of the University of Muenster (Study Code 06-AnIt-11). […] Written informed consent was obtained from all patients or their representatives.
The study included 36 adult patients. Patient demographics and other clinical parameters were collected from the electronic patient charts of the intensive care unit. All patients received 100 mg micafungin intravenously once daily either as empiric or targeted therapy of suspected or proven infection. The decision to begin or end therapy was made by the physicians in charge of the intensive care units irrespective of the pharmacologic study.
Blood samples were collected from indwelling arterial catheters for analysis of micafungin concentrations. On day 1, plasma micafungin concentration was determined at 1, 4, 8, 12, 16 and 20 hours post application and as a trough level immediately before the next dose of micafungin after 24 hours. From day two of therapy, peak levels one hour after infusion and trough levels were collected.
Blood samples were exclusively taken from arterial lines into ethylenediaminetetraacetic acid (EDTA)-containing sample vials tubes (S-Monovette® 2.7 ml K3E, Sarstedt, Nümbrecht, Germany). Samples were immediately transported to the in-house laboratory and plasma was separated by centrifugation at 1600 x g (10 min) and kept and frozen at −80 °C until analysis.
Micafungin in human plasma was analyzed with reversed-phase high-performance liquid chromatography. 200 µl serum, 20 µl internal standard solution (anidulafungin 1 mg/ml in water), 20 µl 30% ZnSO4 x7H2O (w/v) in water and 700 µl methanol were vortex-mixed (5 sec) followed by centrifugation at 800 g for 3 min. 50 µl of the supernatant was injected on a 125 liquid chromatograph (Beckman Coulter GmbH, Krefeld, Germany) interfaced with a model 168 diode array detector. Chromatographic conditions: mobile phase: acetonitrile/50 mM ammonium acetate buffer pH 4.6, 50:50 (v/v); flow rate 1 ml/min at 45 °C; absorbance detection 271 nm; column: XTerra RP18, 3.5 µm, 150 × 4.6 mm (Waters GmbH, Eschborn, Germany).
Model building was performed using NONMEM (Version 7.3; ICON Development Solutions, Ellicott City, MD) with the ADVAN 6 subroutine and the FOCE + I estimation method. Visual predictive checks (pcVPC) and stepwise covariate model building (SCM) were performed with the PsN module (Version 4.6.0)[25]. Graphical output was created in R (version 3.4.0; R foundation for statistical computing, Vienna, Austria) with additional use of the Xpose package (version 4.5.3)[26].
The basic structural model was tested with the following compositions: One to three compartments with linear clearance, nonlinear (Michaelis Menten) clearance and a combination of both were tested.
As categorical covariate, sex was tested. Covariate influence was tested on central and peripheral volumes of distribution, and clearance. Covariate testing was performed using stepwise covariate modelling (SCM) in PsN with a 5% forward inclusion and 1% backward elimination criterion.

C. albicans [7] = test system: C. albicans; design: method as in EUCAST; conditions: ref EUCAST; cited from earlier work
C. albicans [8] = assay: Pharmacodynamic target evaluation (AUC/MIC) in the study population; type: in vivo, Candida albicans; conditions: fixed dose 100 mg once daily, post-hoc AUC 0-24 h per patient and day
Text: as §2, §3

C. parapsilosis [9] = assay: as above; type: in vivo, Candida parapsilosis; conditions: fixed dose 100 mg once daily, post-hoc AUC 0-24 h per patient and day
Text: as §2, §3

C. glabrata [10] = test system: C. glabrata; design: method as in EUCAST; conditions: ref EUCAST; cited from earlier work
[11] = final population PK model estimate, 36 critically ill adult patients, 100 mg i.v. once daily

## CCCCCOc1ccc(-c2cc(-c3ccc(C(=O)N[C@H]4C[C@@H](O)[C@@H](O)NC(=O)[C@@H]5[C@@H](O)[C@@H](C)CN5C(=O)[C@H]([C@H](O)CC(N)=O)NC(=O)[C@H]([C@H](O)[C@@H](O)c5ccc(O)c(OS(=O)(=O)O)c5)NC(=O)[C@@H]5C[C@@H](O)CN5C(=O)[C@H]([C@@H](C)O)NC4=O)cc3)no2)cc1 [micafungin] (X1-[Orn(4R-OH,5R-OH)]T[Hyp][hTyr(3S-OH,4S-OH,3'-OSO3H)][Gln(3R-OH)][Pro(3S-OH,4S-Me)]; lactam 1-C)
[1]
  Volume of distribution: ~ 119 ml/kg
[1]; daily doses between 12.5 mg and 200 mg as well as 3 mg/kg and 8 mg/kg
  Linearity of pharmacokinetics: Linear pharmacokinetics
albumin
  Protein bound: > 99%
C. parapsilosis [2]
  AUC/MIC target to reach stasis: 285
C. parapsilosis [3]
  MIC (EUCAST breakpoint as surrogate): 2000 µg/mL (≈ 1570 µM)
C. albicans [4]
  MIC (EUCAST breakpoint as surrogate): 16 µg/mL (≈ 12.6 µM)
C. glabrata [5]
  Adequacy of AUC/MIC ratio against EUCAST breakpoint: adequate therapy intensities
[6]; CVVHDF, SLEDD, clearance and volumes of distribution
  Influence of renal replacement therapy on pharmacokinetics: did not alter the pharmacokinetics
[6]; categorical covariate effect, SOFA >10 vs less critically ill patients
  Lower central volume of distribution in patients with SOFA >10: 30.8%
[6]; categorical covariate effect, bilirubin >4 mg/dl
  Lower clearance in patients with bilirubin >4 mg/dl: 21.1%
[6]; [11]
  Central volume of distribution: 16.2 L
  Inter-compartmental clearance: 14.4 L/h
  Peripheral volume of distribution: 13.8 L
[6]; human, iv, final population PK model estimate (two compartments, linear elimination), 36 critically ill adult patients, 100 mg i.v. once daily, plasma, HPLC-UV
  clearance: 26 mL/min
[6]; up to 10 days of treatment, 100 mg i.v. once daily
  Accumulation of micafungin in plasma: No accumulation
C. albicans [7]
  AUC/MIC target to reach stasis: 2420
C. albicans [8]
  Adequacy of AUC/MIC ratio against EUCAST breakpoint: adequate therapy intensities
C. parapsilosis [9]
  Adequacy of AUC/MIC ratio against EUCAST breakpoint: does not seem suitable
C. glabrata [10]
  AUC/MIC target to reach stasis: 1283
